Measured values reported in patent US20210261512A1, “NOVEL COMPOUNDS” (INFLAZOME LIMITED, priority 2018, published 2021).

Key:
[1] = molecular target: T1, NLRP3 (Homo sapiens, UniProt Q96P20); assay: Human whole blood IL1β release assay; format: cell-based; conditions: LPS 1 μg/ml, nigericin 10 μM, IL-1β AlphaLisa, 10 μM top dose (Example 2: top dose of 30 μM), read-out: HWB IC50
Procedure: For systemic delivery, the ability to inhibit NLRP3 when the compounds are present within the bloodstream is of great importance. For this reason, the NLRP3 inhibitory activity of a number of compounds in human whole blood was investigated in accordance with the following protocol.
Human whole blood in sodium-heparin or lithium-heparin tubes was obtained from healthy donors from a volunteer donor panel. • 1. Plate out 80 μl of whole blood containing 1 μg/ml of LPS in 96-well, clear bottom cell culture plate (Corning #3585) • 2. Add 10 μl compound (8 points half-log dilution with 10 μM top dose, unless stated otherwise) or vehicle (DMSO 0.1% FAC) to the appropriate wells • 3. Incubate for 3 hrs at 37° C., 5% CO2 • 4. Add 10 μl nigericin (Sigma #N7143) (10 μM FAC) to all wells • 5. Incubate for 1 hr at 37° C., 5% CO2 • 6. At the end of the incubation period, spin plates at 300×g for 5 mins to pellet cells and remove 20 μl of supernatant and add to 96-well v-bottom plates for IL-1β analysis (note: these plates containing the supernatants can be stored at −80° C. to be analysed at a later date) • 7. IL-1β was measured according to the manufacturer protocol (Perkin Elmer-AlphaLisa IL-1 Kit AL220F-5000) • 8. IC50 data is fitted to a non-linear regression equation (log inhibitor vs response-variable slope 4-parameters)

[2] = molecular target: T1, NLRP3; assay: THP-1 cells pyroptosis assay; format: cell-based; parameters: Seed THP-1 cells (25,000 cells/well) containing 1.0 μg/ml LPS; host or cells: THP-1; conditions: LPS 1.0 μg/ml, nigericin 5 μM, resazurin readout, 10 μM top dose (Example 2: top dose of 30 μM)
How it was run: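 THP-1 cells (25,000/well) primed with 1 μg/ml LPS in serum-free RPMI, treated with compound (8-point dilution, 10 μM top unless stated; 0.1% DMSO) 3 h at 37°C, then nigericin 5 μM 1 h. Viability read by resazurin (100 μM, 1-2 h) fluorescence; IC50 from 4-parameter fit.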

T1 sequence (Q96P20 whole entry): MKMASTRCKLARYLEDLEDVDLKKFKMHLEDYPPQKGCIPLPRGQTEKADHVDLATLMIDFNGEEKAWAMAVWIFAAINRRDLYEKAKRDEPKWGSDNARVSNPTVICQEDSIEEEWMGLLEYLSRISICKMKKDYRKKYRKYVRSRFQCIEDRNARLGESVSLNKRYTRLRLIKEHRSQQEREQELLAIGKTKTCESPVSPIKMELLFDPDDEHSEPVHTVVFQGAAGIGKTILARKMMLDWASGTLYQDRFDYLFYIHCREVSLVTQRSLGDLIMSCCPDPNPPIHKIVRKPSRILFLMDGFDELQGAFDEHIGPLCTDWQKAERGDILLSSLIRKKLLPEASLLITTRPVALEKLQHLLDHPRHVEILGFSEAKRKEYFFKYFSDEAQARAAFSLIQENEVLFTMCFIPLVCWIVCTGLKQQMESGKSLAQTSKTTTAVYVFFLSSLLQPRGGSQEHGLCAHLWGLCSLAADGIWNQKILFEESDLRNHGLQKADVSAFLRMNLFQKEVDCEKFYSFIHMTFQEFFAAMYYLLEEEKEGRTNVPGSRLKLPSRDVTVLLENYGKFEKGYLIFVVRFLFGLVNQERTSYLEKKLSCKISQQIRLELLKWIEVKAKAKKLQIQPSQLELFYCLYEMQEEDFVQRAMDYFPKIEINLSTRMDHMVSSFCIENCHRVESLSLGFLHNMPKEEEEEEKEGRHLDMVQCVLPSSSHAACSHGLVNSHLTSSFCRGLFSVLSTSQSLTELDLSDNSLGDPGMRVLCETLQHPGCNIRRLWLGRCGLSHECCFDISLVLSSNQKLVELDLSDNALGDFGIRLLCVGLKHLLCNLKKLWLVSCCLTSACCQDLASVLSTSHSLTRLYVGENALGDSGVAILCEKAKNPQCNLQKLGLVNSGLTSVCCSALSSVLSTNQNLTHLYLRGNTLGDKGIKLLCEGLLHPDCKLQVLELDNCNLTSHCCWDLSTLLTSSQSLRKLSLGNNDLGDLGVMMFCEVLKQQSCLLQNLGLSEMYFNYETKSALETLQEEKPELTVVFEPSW

Row | IC50 [1] [µM] | IC50 [2] [nM] | SMILES
1 | ≤ 1 | ≤ 500 | COc1cc(-c2cc(F)cc(C(C)C)c2Nc2nnc(S(=O)(=O)N3CCC(N(C)C)CC3)[nH]2)ccn1 [Example 261, 1-((5-((4-fluoro-2-isopropyl-6-(2-methoxypyridin-4-yl)phenyl)amino)-4H-1,2,4-triazol-3-yl)sulfonyl)-N,N-dimethylpiperidin-4-amine]
2 | ≤ 1 | ≤ 5000 | CN1CCC(N(C)S(=O)(=O)c2nnc(Nc3c4c(cc5c3CCC5)CCC4)[nH]2)C1 (centres unmarked) [Example 87, 5-((1,2,3,5,6,7-hexahydro-s-indacen-4-yl)amino)-N-methyl-N-(1-methylpyrrolidin-3-yl)-4H-1,2,4-triazole-3-sulfonamide]
3 | ≤ 5 | ≤ 1000 | CCN(CC)CCN(C)S(=O)(=O)c1nnc(Nc2c3c(cc4c2CCC4)CCC3)[nH]1 [Example 80, N-(2-(diethylamino)ethyl)-3-((1,2,3,5,6,7-hexahydro-s-indacen-4-yl)amino)-N-methyl-1H-1,2,4-triazole-5-sulfonamide]
4 | ≤ 5 | ≤ 500 | CCNC[C@H]1CCN(S(=O)(=O)c2nnc(Nc3c4c(cc5c3CCC5)CCC4)[nH]2)C1 [Example 308, (R)-5-((3-((ethylamino)methyl)pyrrolidin-1-yl)sulfonyl)-N-(1,2,3,5,6,7-hexahydro-s-indacen-4-yl)-4H-1,2,4-triazol-3-amine]
5 | ≤ 1 | ≤ 1000 | O=S(=O)(c1nnc(Nc2c3c(cc4c2CCC4)CCC3)[nH]1)N1CC[C@H](CN2CCCC2)C1 [Example 306, (R)—N-(1,2,3,5,6,7-hexahydro-s-indacen-4-yl)-5-((3-(pyrrolidin-1-ylmethyl)pyrrolidin-1-yl)sulfonyl)-4H-1,2,4-triazol-3-amine]
6 | ≤ 1 | ≤ 500 | CC(C)c1cc(F)cc(C(C)C)c1Nc1nc(S(=O)(=O)N2CCC(CN(C)C)C2)n[nH]1 (centres unmarked) [Example 241, 3-((3-((dimethylamino)methyl)pyrrolidin-1-yl)sulfonyl)-N-(4-fluoro-2,6-diisopropylphenyl)-1H-1,2,4-triazol-5-amine]
7 | ≤ 10 | ≤ 500 | O=S(=O)(c1nnc(Nc2c3c(cc4c2CCC4)CCC3)[nH]1)N1CC(N2CCCCC2)C1 [Example 133, N-(1,2,3,5,6,7-hexahydro-s-indacen-4-yl)-5-((3-(piperidin-1-yl)azetidin-1-yl)sulfonyl)-4H-1,2,4-triazol-3-amine]
8 | ≤ 10 | ≤ 1000 | O=S(=O)(c1nnc(Nc2c3c(cc4c2CCC4)CCC3)[nH]1)c1ccccc1F [Example 179, 5-((2-fluorophenyl)sulfonyl)-N-(1,2,3,5,6,7-hexahydro-s-indacen-4-yl)-4H-1,2,4-triazol-3-amine]
9 | ≤ 0.5 | ≤ 500 | CNCC1CN(S(=O)(=O)c2nnc(Nc3c4c(cc5c3CCC5)CCC4)[nH]2)C1 [Example 279, N-(1,2,3,5,6,7-hexahydro-s-indacen-4-yl)-5-((3-((methylamino)methyl)azetidin-1-yl)sulfonyl)-4H-1,2,4-triazol-3-amine]
10 | ≤ 10 | ≤ 1000 | O=S(=O)(c1nnc(Nc2c3c(cc4c2CCC4)CCC3)[nH]1)N1CC[C@H](CNC2CC2)C1 [Example 307, (R)-5-((3-((cyclopropylamino)methyl)pyrrolidin-1-yl)sulfonyl)-N-(1,2,3,5,6,7-hexahydro-s-indacen-4-yl)-4H-1,2,4-triazol-3-amine]
11 | ≤ 1 | ≤ 500 | COc1cc(-c2cc(F)cc(C(C)C)c2Nc2nnc(S(=O)(=O)N3CC4(CCN(C)C4)C3)[nH]2)ccn1 [Example 248, N-(4-fluoro-2-isopropyl-6-(2-methoxypyridin-4-yl)phenyl)-5-((6-methyl-2,6-diazaspiro[3.4]octan-2-yl)sulfonyl)-4H-1,2,4-triazol-3-amine]
12 | ≤ 5 | ≤ 1000 | O=S(=O)(c1nnc(Nc2c3c(cc4c2CCC4)CCC3)[nH]1)N1CC2(CCOCC2)C1 [Example 145, 5-(7-oxa-2-azaspiro[35]nonan-2-ylsulfonyl)-N-(1,2,3,5,6,7-hexahydro-s-indacen-4-yl)-4H-1,2,4-triazol-3-amine]
13 | ≤ 10 | ≤ 1000 | COC(C)(C)[C@H]1CCN(S(=O)(=O)c2nnc(Nc3c4c(cc5c3CCC5)CCC4)[nH]2)C1 [Example 347, (S)-N-(1,2,3,5,6,7-hexahydro-s-indacen-4-yl)-5-((3-(2-methoxypropan-2-yl)pyrrolidin-1-yl)sulfonyl)-4H-1,2,4-triazol-3-amine]
14 | ≤ 10 | ≤ 5000 | Cc1cc(-c2ccc3c(c2Nc2nnc(S(=O)(=O)N4CCC(N(C)C)CC4)[nH]2)CCO3)ccn1 [Example 217, N,N-dimethyl-1-((5-((5-(2-methylpyridin-4-yl)-2,3-dihydrobenzofuran-4-yl)amino)-4H-1,2,4-triazol-3-yl)sulfonyl)piperidin-4-amine]
15 | ≤ 5 | ≤ 1000 | CCN(CC)CCCS(=O)(=O)c1nnc(Nc2c(-c3ccncc3)cc(F)c3c2CCC3)[nH]1 [Example 77, 5-((3-(diethylamino)propyl)sulfonyl)-N-(7-fluoro-5-(pyridin-4-yl)-2,3-dihydro-1H-inden-4-yl)-4H-1,2,4-triazol-3-amine]
16 | ≤ 5 | ≤ 500 | CN(C)Cc1cccc(S(=O)(=O)c2nnc(Nc3c4c(cc5c3CCC5)CCC4)[nH]2)c1 [Example 44, 5-((3-((dimethylamino)methyl)phenyl)sulfonyl)-N-(1,2,3,5,6,7-hexahydro-s-indacen-4-yl)-4H-1,2,4-triazol-3-amine]
17 | ≤ 10 | ≤ 500 | CC(C)(O)C1CCN(S(=O)(=O)c2nnc(Nc3c4c(cc5c3CCC5)CCC4)[nH]2)CC1 [Example 293, 2-(1-((5-((1,2,3,5,6,7-hexahydro-s-indacen-4-yl)amino)-4H-1,2,4-triazol-3-yl)sulfonyl)piperidin-4-yl)propan-2-ol]
18 | ≤ 10 | ≤ 500 | CC(C)N(CCNS(=O)(=O)c1nnc(Nc2c3c(cc4c2CCC4)CCC3)[nH]1)C(C)C [Example 110, N-(2-(diisopropylamino)ethyl)-5-((1,2,3,5,6,7-hexahydro-s-indacen-4-yl)amino)-4H-1,2,4-triazole-3-sulfonamide]
19 | ≤ 10 | ≤ 5000 | O=S(=O)(c1nnc(Nc2c3c(cc4c2CCC4)CCC3)[nH]1)N1CC2(CCOC2)C1 [Example 146, 5-(6-oxa-2-azaspiro[3.4]octan-2-ylsulfonyl)-N-(1,2,3,5,6,7-hexahydro-s-indacen-4-yl)-4H-1,2,4-triazol-3-amine]
20 | ≤ 10 | ≤ 500 | NS(=O)(=O)c1ccccc1S(=O)(=O)c1nnc(Nc2c3c(cc4c2CCC4)CCC3)[nH]1 [Example 325, 2-((5-((1,2,3,5,6,7-hexahydro-s-indacen-4-yl)amino)-4H-1,2,4-triazol-3-yl)sulfonyl)benzenesulfonamide]
21 | ≤ 0.5 | ≤ 500 | CCN1CCC2(C1)CN(S(=O)(=O)c1nnc(Nc3c4c(cc5c3CCC5)CCC4)[nH]1)C2 [Example 240, 5-((6-ethyl-2,6-diazaspiro[3.4]octan-2-yl)sulfonyl)-N-(1,2,3,5,6,7-hexahydro-s-indacen-4-yl)-4H-1,2,4-triazol-3-amine]
22 | ≤ 10 | ≤ 500 | COC(C)(C)Cn1ccc(S(=O)(=O)c2nnc(Nc3c4c(cc5c3CCC5)CCC4)[nH]2)n1 [Example 18, N-(1,2,3,5,6,7-hexahydro-s-indacen-4-yl)-5-((1-(2-methoxy-2-methylpropyl)-1H-pyrazol-3-yl)sulfonyl)-4H-1,2,4-triazol-3-amine]
23 | ≤ 1 | ≤ 500 | COc1cc(-c2ccc3c(c2Nc2nnc(S(=O)(=O)N4CCC(N(C)C)CC4)[nH]2)CCC3)ccn1 [Example 228, 1-((5-((5-(2-methoxypyridin-4-yl)-2,3-dihydro-1H-inden-4-yl)amino)-4H-1,2,4-triazol-3-yl)sulfonyl)-N,N-dimethylpiperidin-4-amine]
24 | ≤ 10 | ≤ 500 | CC(c1cc(S(=O)(=O)c2nnc(Nc3c4c(cc5c3CCC5)CCC4)[nH]2)nn1C)N(C)C (centres unmarked) [Example 5, 5-((5-(1-(dimethylamino)ethyl)-1-methyl-1H-pyrazol-3-yl)sulfonyl)-N-(1,2,3,5,6,7-hexahydro-s-indacen-4-yl)-4H-1,2,4-triazol-3-amine]
25 | ≤ 5 | ≤ 5000 | CC(C)(O)C1CN(S(=O)(=O)c2nnc(Nc3c4c(cc5c3CCC5)CCC4)[nH]2)C1 [Example 151, 2-(1-((5-((1,2,3,5,6,7-hexahydro-s-indacen-4-yl)amino)-4H-1,2,4-triazol-3-yl)sulfonyl)azetidin-3-yl)propan-2-ol]
